# Legend:
# [1] = system: AECO063 (ATCC25922 bearing an acrAB mutation); experiment: microbe, parasite or virus in culture; assay type: cell-based, E. coli; settings: Escherichia coli, ATCC25922, read-out: MIC AECO063
# Summary of the method: (§1)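 CLSI-guided microdilution: bacteria passaged overnight at 35° C. on Mueller-Hinton agar, tested in cation-adjusted broth at a final 3×10^5–7×10^5 CFU/mL across 2-fold drug dilutions, read after 18-24 h at 35° C.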
# [2] = system: AABA1060 (clinical isolate of Acinetobacter baumannii); experiment: MIC broth microdilution, AABA1060; assay type: cell-based; settings: Acinetobacter baumannii, read-out: MIC AABA1060
# Summary of the method: as §1
# APAE001 (ATCC27853) = experiment: MIC broth microdilution, APAE001; assay type: cell-based, P. aeruginosa; settings: Pseudomonas aeruginosa, ATCC27853, read-out: MIC APAE001, APAE001 is ATCC27853
# Summary of the method: as §1
# [3] = system: APAE006 in the presence of 8 micrograms per milliliter of polymyxin B nonapeptide; assay type: cell-based, P. aeruginosa; settings: in the presence of 8 micrograms per milliliter of polymyxin B nonapeptide
# Summary of the method: (§2)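 MICs come from broth microdilution in cation-adjusted Mueller-Hinton broth, final inoculum 3×10^5–7×10^5 CFU/mL, 18-24 hours at 35° C. Levofloxacin and QC strains served as assay controls.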
# AECO001 (ATCC25922) = experiment: MIC broth microdilution, AECO001; assay type: cell-based, E. coli; settings: Escherichia coli, ATCC25922, read-out: MIC AECO001
# Summary of the method: as §1
# AECO001 HSA AGP = experiment: MIC broth microdilution, AECO001 HSA AGP; assay type: cell-based, E. coli; settings: Escherichia coli
# Method: Bacterial isolates were cultivated from −70° C. frozen stocks by overnight passages at 35° C. in ambient air on Mueller-Hinton agar (Beckton Dickinson, Franklin Lakes, N.J.). Clinical isolates tested were obtained from various geographically diverse hospitals in the US and abroad (Focus Diagnostics, Herndon, Va. and JMI, North Liberty, Iowa). Quality control strains were from the American Type Culture Collection (ATCC; Rockville, Md.). Additional primary panel strains were generated using standard molecular biology techniques.
# Minimum Inhibitory Concentrations (MICs) were determined by the broth microdilution method in accordance with the Clinical and Laboratory Standards Institute (CLSI) guidelines. In brief, organism suspensions were adjusted to a 0.5 McFarland standard to yield a final inoculum between 3×10^5 and 7×10^5 colony-forming units (CFU)/mL. Drug dilutions and inocula were made in sterile, cation adjusted Mueller-Hinton Broth (Beckton Dickinson). An inoculum volume of 100 μL was added to wells containing 100 μL of broth with 2-fold serial dilutions of drug. All inoculated microdilution trays were incubated in ambient air at 35° C. for 18-24 hours. […] Performance of the assay was monitored by the use of laboratory quality-control strains and levofloxacin, a compound with a defined MIC spectrum, in accordance with CLSI guidelines.
# *AECO001 is ATCC25922, AECO063 is ATCC25922 bearing an acrAB mutation, APAE001 is ATCC27853, APAE006 is a strain of P. aeruginosa in which all efflux pumps are inactivated, APAE006+PMBN indicates MICs with the indicated strain in the presence of 8 micrograms per milliliter of polymyxin B nonapeptide, AABA1060 is a clinical isolate of Acinetobacter baumannii, ASAU001 is a laboratory strain of S. aureus (ATCC29213).
# [4] = system: ASAU001 (laboratory strain of S. aureus, ATCC29213); experiment: MIC broth microdilution, ASAU001; assay type: cell-based; settings: Staphylococcus aureus, ATCC29213, read-out: MIC ASAU001
# Summary of the method: as §1
# [5] = system: APAE006 (strain of P. aeruginosa in which all efflux pumps are inactivated); experiment: microbe, parasite or virus in culture; assay type: cell-based; settings: Pseudomonas aeruginosa, read-out: MIC APAE006, P. aeruginosa, all efflux pumps inactivated
# Summary of the method: as §2
SMILES,MIC [1],MIC [2],MIC (APAE001 (ATCC27853)),MIC APAE006 + PMBN [3],MIC (AECO001 (ATCC25922)),MIC (AECO001 HSA AGP),MIC [4],MIC [5]
C[C@@H](NCC(=O)N[C@H](C)[C@H](NC(=O)c1ccc(C#C/C=C/c2ccccc2)cc1)C(=O)NO)c1ccccc1 [Example 105-5],< 2 µg/mL,16 to 64 µg/mL,16 to 64 µg/mL,A (MIC's of 2.0 μg/mL or less = A),2 to 16 µg/mL,2 to 16 µg/mL,16 to 64 µg/mL,2 to 16 µg/mL
C[C@@H](N)[C@H](NC(=O)c1ccc(C#CC#Cc2ccc(OC(F)(F)F)cc2)cc1)C(=O)NO [Example 82-11],< 2 µg/mL,16 to 64 µg/mL,16 to 64 µg/mL,A (MIC's of 2.0 μg/mL or less = A),2 to 16 µg/mL,2 to 16 µg/mL,16 to 64 µg/mL,2 to 16 µg/mL
"C[C@H](N)[C@H](NC(=O)c1ccc(C#Cc2ccccc2)cc1)C(=O)NO [Example 133-1, N-((1S,2S)-2-Amino-1-hydroxycarbamoyl-propyl)-4-phenylethynyl-benzamide]",< 2 µg/mL,< 2 µg/mL,< 2 µg/mL,A (MIC's of 2.0 μg/mL or less = A),< 2 µg/mL,2 to 16 µg/mL,16 to 64 µg/mL,< 2 µg/mL
CC(C)(O)[C@H](NC(=O)c1ccc(C#C/C=C/c2ccc(CN3CCOCC3)cc2)cc1)C(=O)NO [Compound 97-2],< 2 µg/mL,< 2 µg/mL,< 2 µg/mL,A (MIC's of 2.0 μg/mL or less = A),< 2 µg/mL,< 2 µg/mL,16 to 64 µg/mL,< 2 µg/mL
C[C@@H](O)[C@H](NC(=O)c1ccc(/C=C/C#Cc2ccc(CO)cc2)cc1)C(=O)NO [Example 112-3],< 2 µg/mL,16 to 64 µg/mL,2 to 16 µg/mL,A (MIC's of 2.0 μg/mL or less = A),< 2 µg/mL,16 to 64 µg/mL,16 to 64 µg/mL,< 2 µg/mL
"CO[C@H](C)[C@H](NC(=O)c1ccc(C#C/C=C/c2ccc(CN3CCOCC3)cc2)cc1)C(=O)NO [Example 97-1, N-((1S,2R)-1-Hydroxycarbamoyl-2-methoxy-propyl)-4-[(E)-4-(4-morpholin-4-ylmethyl-phenyl)-but-3-en-1-ynyl]-benzamide]",< 2 µg/mL,2 to 16 µg/mL,2 to 16 µg/mL,A (MIC's of 2.0 μg/mL or less = A),< 2 µg/mL,< 2 µg/mL,16 to 64 µg/mL,< 2 µg/mL
C[C@@H](N)[C@H](NC(=O)c1ccc(C#Cc2cncnc2)cc1)C(=O)NO [Example 133-7],< 2 µg/mL,< 2 µg/mL,< 2 µg/mL,A (MIC's of 2.0 μg/mL or less = A),< 2 µg/mL,2 to 16 µg/mL,2 to 16 µg/mL,< 2 µg/mL
C[C@@H](N)[C@H](NC(=O)c1ccc(C#Cc2ccc(CNC3CCCC3)cc2)cc1)C(=O)NO [Example 118-6],< 2 µg/mL,16 to 64 µg/mL,< 2 µg/mL,A (MIC's of 2.0 μg/mL or less = A),2 to 16 µg/mL,2 to 16 µg/mL,16 to 64 µg/mL,< 2 µg/mL
C[C@@H](N)[C@H](NC(=O)c1ccc(C#CC#CC2CC2)cc1)C(=O)NO [Example 91-2],< 2 µg/mL,< 2 µg/mL,< 2 µg/mL,A (MIC's of 2.0 μg/mL or less = A),< 2 µg/mL,2 to 16 µg/mL,2 to 16 µg/mL,< 2 µg/mL

# — patent US9617256B2 (priority 2007, dated 2017)
